Reference: BindingDB's records for doi:10.1016/j.bmc.2019.01.012 (University of Education, 2019)

Legend:
[1] = biological target: Cholinesterase (Homo sapiens, UniProt P06276); experiment: Inhibition of BuChE (unknown origin) using butyrylthiocholine bromide as substrate by Ellman method
[2] = biological target: Acetylcholinesterase (Homo sapiens, UniProt P22303); experiment: Inhibition of AChE (unknown origin) using […] as substrate by Ellman method
Acetylcholinesterase, sequence (P22303 whole entry): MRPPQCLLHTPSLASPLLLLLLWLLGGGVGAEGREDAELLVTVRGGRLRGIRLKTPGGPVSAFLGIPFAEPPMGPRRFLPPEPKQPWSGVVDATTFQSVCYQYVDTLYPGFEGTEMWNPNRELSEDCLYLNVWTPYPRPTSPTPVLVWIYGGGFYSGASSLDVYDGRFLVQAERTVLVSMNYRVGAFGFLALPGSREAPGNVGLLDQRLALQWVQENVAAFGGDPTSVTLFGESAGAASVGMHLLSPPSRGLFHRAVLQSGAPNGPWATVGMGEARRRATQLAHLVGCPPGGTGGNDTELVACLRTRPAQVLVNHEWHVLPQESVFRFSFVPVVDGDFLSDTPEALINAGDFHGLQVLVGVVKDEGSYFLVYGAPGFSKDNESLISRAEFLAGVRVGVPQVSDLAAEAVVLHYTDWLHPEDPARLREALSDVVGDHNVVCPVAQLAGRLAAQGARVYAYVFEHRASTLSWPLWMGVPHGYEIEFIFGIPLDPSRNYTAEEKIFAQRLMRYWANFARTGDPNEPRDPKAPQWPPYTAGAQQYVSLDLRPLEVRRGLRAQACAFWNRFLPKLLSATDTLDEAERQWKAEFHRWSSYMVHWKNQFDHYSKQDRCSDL

Cholinesterase, sequence (P06276 whole entry): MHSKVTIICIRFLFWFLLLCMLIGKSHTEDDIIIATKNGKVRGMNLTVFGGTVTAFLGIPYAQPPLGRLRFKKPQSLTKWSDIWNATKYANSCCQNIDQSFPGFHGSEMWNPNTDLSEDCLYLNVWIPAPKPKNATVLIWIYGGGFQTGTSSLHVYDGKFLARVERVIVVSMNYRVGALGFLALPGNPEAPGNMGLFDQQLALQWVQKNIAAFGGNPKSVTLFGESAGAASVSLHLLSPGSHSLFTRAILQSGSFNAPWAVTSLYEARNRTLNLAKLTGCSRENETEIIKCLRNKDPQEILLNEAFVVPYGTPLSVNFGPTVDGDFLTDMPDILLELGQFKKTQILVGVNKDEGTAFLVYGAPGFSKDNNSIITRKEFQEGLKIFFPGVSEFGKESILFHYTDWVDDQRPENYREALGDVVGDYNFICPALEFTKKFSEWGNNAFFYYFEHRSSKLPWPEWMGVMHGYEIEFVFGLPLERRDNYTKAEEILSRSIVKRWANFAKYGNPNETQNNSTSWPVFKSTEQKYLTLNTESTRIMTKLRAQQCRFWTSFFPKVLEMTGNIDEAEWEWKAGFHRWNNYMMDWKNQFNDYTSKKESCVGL

SMILES | IC50 [1] [µM] | IC50 [2] [µM]
CC(C)Cc1ccc(C(C)C(=O)NS(=O)(=O)c2ccc(N)cc2)cc1 (stereo not given) | 214 | < 600
CC(C)Cc1ccc([C@H](C)C(=O)O)cc1 [(RS)-ibuprofen] | < 600 | 235
Nc1ccc(S(N)(=O)=O)cc1 [aromatic sulfonamide compound 5] | 138 | 
